Source: article PMC4558462, “A new small molecule inhibitor of soluble guanylate cyclase” (Bioorganic & Medicinal Chemistry, 2015)
“Also recorded” adds a separate entry of the source. Read-outs that look alike come from different tables or passages of the source.

How the values were obtained:
sGCcat = target: T1, sGCcat (Homo sapiens, UniProt Q02108+Q02153); assay: SPR binding to catalytic domain of sGC; settings: for sGCcat (SPR) binding norm. resp. (RU): Biacore T200, 25 °C; for binding to sGCcat (in words): discussion of Table 1
T1 construct: a smaller construct of the catalytic domain (sGCcat)
T1 sequence (Q02108 481-608 limits assumed): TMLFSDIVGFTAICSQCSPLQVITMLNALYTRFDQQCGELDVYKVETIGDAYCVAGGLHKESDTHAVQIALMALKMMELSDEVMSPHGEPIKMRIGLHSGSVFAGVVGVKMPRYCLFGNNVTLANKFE
T1 sequence (Q02153 421-554 limits assumed): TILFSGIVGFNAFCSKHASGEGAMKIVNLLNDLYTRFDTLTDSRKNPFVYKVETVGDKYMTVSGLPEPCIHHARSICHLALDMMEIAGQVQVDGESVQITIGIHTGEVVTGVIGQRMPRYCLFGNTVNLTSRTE
Protocol: We have previously described a surface plasmon resonance-based assay for the detection of binding of small molecules to full-length sGC and a smaller construct of the catalytic domain (sGCcat).[24] This assay was used to measure the binding of the compounds to sGCcat.[24] […] The position of the hydroxyl group can be changed whilst retaining binding strength and activity.
Surface plasmon resonance (SPR) experiments were performed with a Biacore T200 instrument at 25 °C. Data processing and analysis were performed using BIAevaluation software and Scrubber2. All sensorgrams were double referenced by subtracting the response in a reference flowcell and a blank sample. Materials and methods used were the same as previously published.[24]

purified bovine lung sGC = target: T2, purified bovine lung sGC (Bos taurus, UniProt P16068+P19687); assay: Soluble guanylate cyclase activity assay (cGMP radioimmunoassay); type: biochemical; settings: for inhibition of sGC enzyme activity (in words): discussion of Table 1
T2 construct: screened at 100 μM against purified bovine lung sGC; purchased Enzo lifesciences ALX-202-039-C005; host or cells: bovine lung
T2 sequence (P19687 1-691): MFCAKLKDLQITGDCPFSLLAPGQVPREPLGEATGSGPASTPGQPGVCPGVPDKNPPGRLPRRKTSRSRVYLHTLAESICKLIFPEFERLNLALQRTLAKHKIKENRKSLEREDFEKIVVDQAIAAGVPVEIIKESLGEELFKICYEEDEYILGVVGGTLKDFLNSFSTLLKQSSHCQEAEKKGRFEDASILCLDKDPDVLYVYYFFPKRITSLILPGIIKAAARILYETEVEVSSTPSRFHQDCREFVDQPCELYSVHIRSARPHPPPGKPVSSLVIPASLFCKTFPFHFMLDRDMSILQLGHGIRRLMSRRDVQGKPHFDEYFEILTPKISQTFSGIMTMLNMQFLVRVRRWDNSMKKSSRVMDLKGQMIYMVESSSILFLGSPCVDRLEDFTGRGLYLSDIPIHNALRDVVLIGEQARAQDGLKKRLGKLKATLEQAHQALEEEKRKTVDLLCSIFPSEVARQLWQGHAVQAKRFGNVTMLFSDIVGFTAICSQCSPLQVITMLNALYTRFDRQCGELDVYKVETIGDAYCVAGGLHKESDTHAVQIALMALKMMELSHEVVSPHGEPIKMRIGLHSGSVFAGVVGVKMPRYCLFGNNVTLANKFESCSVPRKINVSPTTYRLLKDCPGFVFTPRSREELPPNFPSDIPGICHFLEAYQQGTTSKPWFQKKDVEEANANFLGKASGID
T2 sequence (P16068 1-619): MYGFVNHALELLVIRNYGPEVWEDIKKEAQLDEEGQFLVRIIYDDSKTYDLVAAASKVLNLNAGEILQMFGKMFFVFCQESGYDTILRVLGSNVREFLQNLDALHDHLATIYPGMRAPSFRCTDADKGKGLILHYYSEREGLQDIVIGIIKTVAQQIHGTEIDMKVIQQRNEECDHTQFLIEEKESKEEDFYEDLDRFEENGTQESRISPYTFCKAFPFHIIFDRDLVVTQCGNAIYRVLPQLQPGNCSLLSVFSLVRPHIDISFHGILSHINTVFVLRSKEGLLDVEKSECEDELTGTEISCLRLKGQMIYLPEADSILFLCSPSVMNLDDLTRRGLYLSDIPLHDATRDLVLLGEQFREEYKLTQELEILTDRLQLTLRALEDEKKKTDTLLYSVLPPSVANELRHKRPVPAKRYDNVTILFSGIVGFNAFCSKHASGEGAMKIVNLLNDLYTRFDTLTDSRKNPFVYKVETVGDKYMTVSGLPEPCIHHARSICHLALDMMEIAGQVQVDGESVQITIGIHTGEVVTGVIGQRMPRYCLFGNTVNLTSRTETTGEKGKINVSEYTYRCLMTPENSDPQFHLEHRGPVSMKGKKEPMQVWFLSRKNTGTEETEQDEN
Protocol: Virtual screening was performed by similarity searches using MACCS fingerprints at 85% and 75% Tanimoto of commercial libraries and the selected compounds were screened at 100 μM against purified bovine lung sGC using diethylamine NONOate (30 nM) as the NO donor. Enzyme activity was determined by measuring cGMP production using a standard cGMP [^3H] radioimmunoassay.[21,22]
[…] Compounds were added at 100 μM prior to adding the NO donor DEA/NO (30 nM) or clamped NO concentrations. cGMP generation was allowed to proceed for two minutes, after which aliquots were withdrawn and inactivated by boiling in 50 mM Tris, 4 mM EDTA buffer. cGMP formation was measured by a standard radioimmunoassay.

[1] = virtual screening hits, 100 μM compound, diethylamine NONOate 30 nM as NO donor, read-out: % inhibition of sGC activity at 100 μM compound
[2] = read-out: % inhibition of sGC activity at 100 μM compound
[3] = synthesised analogues, 100 μM, read-out: sGC activity% inhibition at 100 μM

| Compound | sGCcat (SPR) binding norm. resp. (RU) (sGCcat) | binding to sGCcat (in words) (sGCcat) | inhibition of sGC enzyme activity (in words) (purified bovine lung sGC) | further results |
| --- | --- | --- | --- | --- |
| 6,7-Bis((3-hydroxyphenyl)amino)-N-methyl-2-naphthamide [Compound 28] | 9.6 ± 0.3 RU | higher binding | – | – |
| Clc1cccc(Nc2ncnc3ccccc23)c1Cl [Compound 5] | – | – | – | inhibition at 100 µM (purified bovine lung sGC; [1]): 51% |
| N#Cc1cc(Nc2cccc(Cl)c2)c(Nc2cccc(Cl)c2)cc1C#N [Compound 6] | – | – | – | inhibition at 100 µM (purified bovine lung sGC; [1]): 51% |
| Fc1cccc(Nc2nc3nonc3nc2Nc2cccc(F)c2)c1 [Compound 7] | – | – | – | inhibition at 100 µM (purified bovine lung sGC; [1]): 90% |
| O=[N+]([O-])c1ccccc1Nc1nc2nonc2nc1Nc1ccccc1[N+](=O)[O-] [Compound 8] | – | – | – | inhibition at 100 µM (purified bovine lung sGC; [2]): 90% |
| CC(=O)c1ccc(Nc2nc3cc([N+](=O)[O-])c([N+](=O)[O-])cc3nc2Nc2cccc(C(C)=O)c2)cc1 [Compound 9] | – | – | – | inhibition at 100 µM (purified bovine lung sGC; [2]): 73% |
| O=[N+]([O-])c1ccc2nc(Nc3cccc(O)c3)c(Nc3cccc(O)c3)nc2c1 [Compound 14, 3,3′-((6-Nitroquinoxaline-2,3-diyl)bis(azanediyl))diphenol] | 11.6 ± 0.8 RU | higher binding | – | inhibition at 100 µM (purified bovine lung sGC; [3]): 41.4% |
| COc1ccc(Nc2nc3ccc([N+](=O)[O-])cc3nc2Nc2ccc(OC)cc2)cc1 [Compound 15, N2,N3-Bis(4-methoxyphenyl)-6-nitroquinoxaline-2,3-diamine] | 1.0 ± 0.3 RU | reduced its binding strength | biochemically inactive | – |
| O=[N+]([O-])c1ccc2nc(Nc3ccccc3)c(Nc3ccccc3)nc2c1 [Compound 16, 6-Nitro-N2,N3-diphenylquinoxaline-2,3-diamine] | 2.6 ± 0.2 RU | – | – | – |
| CC(=O)Nc1ccc(Nc2nc3ccc([N+](=O)[O-])cc3nc2Nc2ccc(NC(C)=O)cc2)cc1 [Compound 17, N,N′-(((6-Nitroquinoxaline-2,3-diyl)bis(azanediyl))bis(4,1-phenylene))diacetamide] | 0.8 ± 0.3 RU | reduced its binding strength | biochemically inactive | – |
| CC(=O)Nc1cccc(Nc2nc3ccc([N+](=O)[O-])cc3nc2Nc2cccc(NC(C)=O)c2)c1 [Compound 18, N,N′-(((6-Nitroquinoxaline-2,3-diyl)bis(azanediyl))bis(3,1-phenylene))diacetamide] | 3.0 ± 1.0 RU | reduced its binding strength | biochemically inactive | – |
| O=[N+]([O-])c1ccc2nc(Nc3ccc(F)cc3)c(Nc3ccc(F)cc3)nc2c1 [Compound 19, N2,N3-Bis(4-fluorophenyl)-6-nitroquinoxaline-2,3-diamine] | 1.9 ± 1.8 RU | reduced its binding strength | biochemically inactive | – |
| Oc1ccc(Nc2nc3ccccc3nc2Nc2ccc(O)cc2)cc1 [Compound 20, 4,4′-(Quinoxaline-2,3-diylbis(azanediyl))diphenol] | 12.4 ± 0.1 RU | higher binding; also recorded: only a small decrease in binding | no significant inhibition | – |
| Oc1ccc(Nc2nc3ccc(C(F)(F)F)cc3nc2Nc2ccc(O)cc2)cc1 [Compound 21, 4,4′-((6-(Trifluoromethyl)quinoxaline-2,3-diyl)bis(azanediyl))diphenol] | 6.4 ± 0.5 RU | higher binding | – | inhibition at 100 µM (purified bovine lung sGC; [3]): 44.4% |
| Oc1cccc(Nc2nc3ccc(C(F)(F)F)cc3nc2Nc2cccc(O)c2)c1 [Compound 22, 3,3′-((6-(Trifluoromethyl)quinoxaline-2,3-diyl)bis(azanediyl))diphenol] | 3.0 ± 0.5 RU | – | – | inhibition at 100 µM (purified bovine lung sGC; [3]): 21.1% |
| CNC(=O)c1ccc2nc(Nc3ccc(O)cc3)c(Nc3ccc(O)cc3)nc2c1 [Compound 27, 2,3-Bis((4-hydroxyphenyl)amino)-N-methylquinoxaline-6-carboxamide] | 1.1 ± 0.3 RU | – | – | – |
